# Experimental data published in ChEMBL document CHEMBL5046291, “Evodiamine-Inspired Topoisomerase-Histone Deacetylase Dual Inhibitors: Novel Orally Active Antitumor Agents for Leukemia Therapy” (J Med Chem, 2022).
# Active and inactive are the calls of the source. The rule behind the calls is not given here.
# What was measured:
# [1] = tested on: HEL; experiment: Synergistic antiproliferative effect on HEL cells assessed as fractional inhibitory concentration index at 0.37 uM in presence of vorinostat; format: functional, Homo sapiens
# [2] = tested on: HEL; experiment: Synergistic antiproliferative effect on HEL cells assessed as fractional inhibitory concentration index at 10 uM in presence of vorinostat; format: functional, Homo sapiens
# [3] = tested on: K562; experiment: Antiproliferative activity against human K562 cells assessed as cell growth inhibition incubated for 8 hrs by CCK8 assay; format: functional, cell-based; conditions: K562, 8 h
# [4] = tested on: HEL; experiment: Synergistic antiproliferative effect on HEL cells assessed as combination index at 0.014 uM in presence of vorinostat; format: functional, Homo sapiens
# [5] = tested on: HCT-116; experiment: Antiproliferative activity against human HCT-116 cells assessed as cell growth inhibition incubated for 8 hrs by CCK8 assay; format: functional, cell-based; conditions: HCT-116, 8 h
# [6] = tested on: MCF7; experiment: Antiproliferative activity against human MCF7 cells assessed as cell growth inhibition incubated for 8 hrs by CCK8 assay; format: functional, cell-based; conditions: MCF7, 8 h
# [7] = tested on: HEL; experiment: Synergistic antiproliferative effect on HEL cells assessed as combination index at 1.11 uM in presence of vorinostat; format: functional, Homo sapiens
# [8] = tested on: HEL; experiment: Synergistic antiproliferative effect on HEL cells assessed as fractional inhibitory concentration index at 0.0046 uM in presence of vorinostat; format: functional, Homo sapiens
# [9] = tested on: HEL; experiment: Synergistic antiproliferative effect on HEL cells assessed as fractional inhibitory concentration index at 0.04 uM in presence of vorinostat; format: functional, Homo sapiens
# [10] = tested on: HEL; experiment: Synergistic antiproliferative effect on HEL cells assessed as combination index at 0.04 uM in presence of vorinostat; format: functional, Homo sapiens
# [11] = tested on: HepG2; experiment: Antiproliferative activity against human HepG2 cells assessed as cell growth inhibition incubated for 8 hrs by CCK8 assay; format: functional, cell-based; conditions: HepG2, 8 h
# [12] = tested on: HEL; experiment: Synergistic antiproliferative effect on HEL cells assessed as combination index at 3.33 uM in presence of vorinostat; format: functional, Homo sapiens
# [13] = tested on: HEL; experiment: Synergistic antiproliferative effect on HEL cells assessed as combination index at 10 uM in presence of vorinostat; format: functional, Homo sapiens
# [14] = tested on: A549; experiment: Antiproliferative activity against human A549 cells assessed as cell growth inhibition incubated for 8 hrs by CCK8 assay; format: functional, cell-based; conditions: A549, 8 h
# [15] = tested on: HEL; experiment: Antitumor activity against HEL cells xenografted in BALB/C mouse assessed as T/C value at 10 mg/kg, po qd for 14 days consecutively by caliper method relative to control; format: functional, Homo sapiens; conditions: time 14 day
# [16] = tested on: HEL; experiment: Synergistic antiproliferative effect on HEL cells assessed as combination index at 0.046 uM in presence of vorinostat; format: functional, Homo sapiens
# [17] = tested on: HEL; experiment: Synergistic antiproliferative effect on HEL cells assessed as combination index at 0.12 uM in presence of vorinostat; format: functional, Homo sapiens
# [18] = tested on: HEL; experiment: Antiproliferative activity against HEL cells assessed as cell growth inhibition incubated for 8 hrs by CCK8 assay; format: functional, cell-based; conditions: Homo sapiens
# [19] = tested on: HEL; experiment: Synergistic antiproliferative effect on HEL cells assessed as combination index at 0.37 uM in presence of vorinostat; format: functional, Homo sapiens
# [20] = tested on: HEL; experiment: Antitumor activity against HEL cells xenografted in BALB/C mouse assessed as tumor growth inhibition at 10 mg/kg, po qd for 14 days consecutively by caliper method relative to control; format: functional, Homo sapiens; conditions: 336 h, time 14 day, read-out: TGI
# [21] = tested on: HEL; experiment: Synergistic antiproliferative effect on HEL cells assessed as fractional inhibitory concentration index at 0.12 uM in presence of vorinostat; format: functional, Homo sapiens
# [22] = tested on: HEL; experiment: Synergistic antiproliferative effect on HEL cells assessed as fractional inhibitory concentration index at 0.014 uM in presence of vorinostat; format: functional, Homo sapiens
# [23] = tested on: HEL; experiment: Synergistic antiproliferative effect on HEL cells assessed as fractional inhibitory concentration index at 1.11 uM in presence of vorinostat; format: functional, Homo sapiens
# [24] = tested on: HEL; experiment: Synergistic antiproliferative effect on HEL cells assessed as fractional inhibitory concentration index at 3.33 uM in presence of vorinostat; format: functional, Homo sapiens
# [25] = molecular target: T1, Histone deacetylase 2 (Homo sapiens, UniProt Q92769); experiment: Inhibition of HDAC2 in HEL cells assessed as increase in acetyl-H4 levels at 20 to 100 nM incubated for 24 hrs by western blot analysis; format: cell-based; conditions: dose 20-100 nM
# [26] = molecular target: T2, Histone deacetylase 1 (Homo sapiens, UniProt Q13547); experiment: Inhibition of HDAC1 in HEL cells assessed as increase in acetyl-H3 levels at 20 to 100 nM incubated for 24 hrs by western blot analysis; format: cell-based; conditions: dose 20-100 nM
# [27] = molecular target: T2, Histone deacetylase 1; experiment: Inhibition of full-length recombinant human HDAC1 expressed in Baculovirus expression system using Ac-Leu-Gly-Lys(Ac)-AMC as substrate preincubated for 5 mins followed by substrate addition and further incubated for 30 mins by fluorescence based microtiter plate reader assay
# [28] = molecular target: T3, Protein deacetylase HDAC6 (Homo sapiens, UniProt Q9UBN7); experiment: Inhibition of full-length recombinant N-terminal GST-tagged human HDAC6 expressed in baculovirus infected Sf9 cells using Ac-Leu-Gly-Lys(Ac)-AMC as substrate preincubated for 5 mins followed by substrate addition and further incubated for 30 mins by fluorescence based microtiter plate reader assay
# T3 sequence (Q9UBN7 whole entry): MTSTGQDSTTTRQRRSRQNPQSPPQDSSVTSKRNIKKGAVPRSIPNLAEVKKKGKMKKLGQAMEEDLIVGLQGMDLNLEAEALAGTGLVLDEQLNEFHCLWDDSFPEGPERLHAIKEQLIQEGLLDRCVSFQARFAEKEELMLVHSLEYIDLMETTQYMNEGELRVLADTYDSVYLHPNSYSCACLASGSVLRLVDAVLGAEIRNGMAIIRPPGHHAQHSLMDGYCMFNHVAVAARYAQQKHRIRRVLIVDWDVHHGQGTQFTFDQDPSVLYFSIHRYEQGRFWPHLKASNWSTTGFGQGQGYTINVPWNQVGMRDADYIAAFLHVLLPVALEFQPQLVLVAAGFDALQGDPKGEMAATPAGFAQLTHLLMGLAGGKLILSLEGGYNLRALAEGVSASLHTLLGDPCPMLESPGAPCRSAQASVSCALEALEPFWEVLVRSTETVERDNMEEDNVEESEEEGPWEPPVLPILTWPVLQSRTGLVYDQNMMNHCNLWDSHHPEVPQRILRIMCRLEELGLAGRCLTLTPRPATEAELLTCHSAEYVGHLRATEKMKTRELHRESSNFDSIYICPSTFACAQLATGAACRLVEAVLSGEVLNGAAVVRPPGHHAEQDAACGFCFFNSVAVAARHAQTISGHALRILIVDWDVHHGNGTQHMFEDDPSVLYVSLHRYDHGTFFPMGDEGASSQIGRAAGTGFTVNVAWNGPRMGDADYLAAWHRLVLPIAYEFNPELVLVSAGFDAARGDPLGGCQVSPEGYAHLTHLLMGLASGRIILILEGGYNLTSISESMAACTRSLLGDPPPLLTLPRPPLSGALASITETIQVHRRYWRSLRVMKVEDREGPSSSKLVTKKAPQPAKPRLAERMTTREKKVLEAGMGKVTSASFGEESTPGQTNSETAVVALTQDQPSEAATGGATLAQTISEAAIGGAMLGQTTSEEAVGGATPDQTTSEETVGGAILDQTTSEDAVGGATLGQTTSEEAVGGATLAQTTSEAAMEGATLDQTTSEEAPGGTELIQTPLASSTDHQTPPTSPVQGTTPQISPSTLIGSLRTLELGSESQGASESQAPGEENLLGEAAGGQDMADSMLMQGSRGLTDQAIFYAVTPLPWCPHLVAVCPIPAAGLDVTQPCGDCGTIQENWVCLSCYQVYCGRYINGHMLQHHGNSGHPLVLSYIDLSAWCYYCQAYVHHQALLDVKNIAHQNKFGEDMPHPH
# [29] = molecular target: DNA topoisomerase 2-alpha (Homo sapiens) (UniProt P11388); experiment: Inhibition of recombinant Top2 (unknown origin) assessed as inhibition of relaxation of supercoiled pBR322 plasmid DNA at 50 uM incubated for 15 mins by ethidium bromide staining based agarose gel electrophoresis analysis
# [30] = molecular target: Histone deacetylase 3 (Homo sapiens, UniProt O15379); experiment: (§1) Inhibition of recombinant His-tagged human HDAC3 expressed in baculovirus infected insect cells using Ac-Leu-Gly-Lys(Ac)-AMC as substrate preincubated for 5 mins followed by substrate addition and further incubated for 30 mins by fluorescence based microtiter plate reader assay
# [31] = molecular target: T1, Histone deacetylase 2; experiment: as §1, with “full length C-terminal GST tagged” for “His-tagged”, “HDAC2” for “HDAC3”, “infected Sf9” for “infected”
# [32] = molecular target: T4, DNA topoisomerase 1 (Homo sapiens) (UniProt P11387); experiment: Inhibition of recombinant Top1 (unknown origin) assessed as inhibition of relaxation of supercoiled pBR322 plasmid DNA at 50 uM incubated for 15 mins by ethidium bromide staining based agarose gel electrophoresis analysis
# T4 sequence (whole entry): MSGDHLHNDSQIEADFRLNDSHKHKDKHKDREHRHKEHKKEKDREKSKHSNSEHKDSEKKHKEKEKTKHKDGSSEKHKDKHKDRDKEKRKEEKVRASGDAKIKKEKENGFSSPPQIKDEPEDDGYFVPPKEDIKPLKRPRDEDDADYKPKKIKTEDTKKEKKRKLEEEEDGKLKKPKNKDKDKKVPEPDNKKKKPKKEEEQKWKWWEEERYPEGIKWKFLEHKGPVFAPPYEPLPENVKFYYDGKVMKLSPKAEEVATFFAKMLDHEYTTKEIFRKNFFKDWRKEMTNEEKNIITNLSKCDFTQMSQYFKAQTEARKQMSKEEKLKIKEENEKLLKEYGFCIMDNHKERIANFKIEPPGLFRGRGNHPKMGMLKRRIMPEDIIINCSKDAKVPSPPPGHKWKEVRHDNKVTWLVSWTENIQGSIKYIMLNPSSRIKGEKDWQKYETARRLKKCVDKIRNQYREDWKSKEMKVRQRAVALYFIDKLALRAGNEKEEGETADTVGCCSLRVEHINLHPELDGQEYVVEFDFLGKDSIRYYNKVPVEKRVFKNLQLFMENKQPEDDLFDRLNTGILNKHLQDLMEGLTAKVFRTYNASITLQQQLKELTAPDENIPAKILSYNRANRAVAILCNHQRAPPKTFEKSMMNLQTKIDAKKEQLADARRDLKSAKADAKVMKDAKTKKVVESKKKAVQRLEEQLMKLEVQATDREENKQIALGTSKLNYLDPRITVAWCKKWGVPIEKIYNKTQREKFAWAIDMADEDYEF
# [33] = molecular target: DNA topoisomerase 2-alpha (Homo sapiens) (UniProt P11388); experiment: Inhibition of recombinant Top2 (unknown origin) assessed as inhibition of relaxation of supercoiled pBR322 plasmid DNA at 100 uM incubated for 15 mins by ethidium bromide staining based agarose gel electrophoresis analysis
# [34] = molecular target: T5, Histone deacetylase 8 (Homo sapiens, UniProt Q9BY41); experiment: Inhibition of full-length recombinant C-terminal His-tagged human HDAC8 expressed in baculovirus infected Sf9 insect cells using Ac-Leu-Gly-Lys(Tfa)-AMC as substrate preincubated for 5 mins followed by substrate addition and further incubated for 30 mins by fluorescence based microtiter plate reader assay
# T5 sequence (Q9BY41 whole entry): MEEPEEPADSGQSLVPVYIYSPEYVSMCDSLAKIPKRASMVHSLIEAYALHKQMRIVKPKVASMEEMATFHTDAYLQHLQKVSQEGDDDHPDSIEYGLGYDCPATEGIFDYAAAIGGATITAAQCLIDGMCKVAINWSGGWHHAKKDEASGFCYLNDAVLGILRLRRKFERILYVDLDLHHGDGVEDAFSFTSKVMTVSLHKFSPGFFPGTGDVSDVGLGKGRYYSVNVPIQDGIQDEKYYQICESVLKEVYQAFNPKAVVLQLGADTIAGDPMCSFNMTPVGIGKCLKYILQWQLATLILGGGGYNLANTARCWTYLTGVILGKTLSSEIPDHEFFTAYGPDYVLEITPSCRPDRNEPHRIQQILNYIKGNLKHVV
# [35] = molecular target: T4, DNA topoisomerase 1 (Homo sapiens); experiment: Inhibition of recombinant Top1 (unknown origin) assessed as inhibition of relaxation of supercoiled pBR322 plasmid DNA at 100 uM incubated for 15 mins by ethidium bromide staining based agarose gel electrophoresis analysis
# T1 sequence (Q92769 whole entry): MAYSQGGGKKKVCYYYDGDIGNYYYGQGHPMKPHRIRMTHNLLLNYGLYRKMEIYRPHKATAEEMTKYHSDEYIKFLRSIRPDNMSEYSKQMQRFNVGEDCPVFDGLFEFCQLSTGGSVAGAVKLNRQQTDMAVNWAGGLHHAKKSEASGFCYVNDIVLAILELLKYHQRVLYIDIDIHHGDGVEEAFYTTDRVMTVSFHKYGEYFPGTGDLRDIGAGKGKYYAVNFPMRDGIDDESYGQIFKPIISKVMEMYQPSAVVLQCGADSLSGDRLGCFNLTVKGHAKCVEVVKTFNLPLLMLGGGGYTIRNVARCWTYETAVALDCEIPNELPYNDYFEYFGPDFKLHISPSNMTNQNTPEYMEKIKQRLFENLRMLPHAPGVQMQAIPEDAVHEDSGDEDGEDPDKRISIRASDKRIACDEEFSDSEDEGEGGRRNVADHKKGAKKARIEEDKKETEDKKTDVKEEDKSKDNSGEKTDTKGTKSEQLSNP
# Chain of DNA topoisomerase 2-alpha (Homo sapiens) (P11388 whole entry): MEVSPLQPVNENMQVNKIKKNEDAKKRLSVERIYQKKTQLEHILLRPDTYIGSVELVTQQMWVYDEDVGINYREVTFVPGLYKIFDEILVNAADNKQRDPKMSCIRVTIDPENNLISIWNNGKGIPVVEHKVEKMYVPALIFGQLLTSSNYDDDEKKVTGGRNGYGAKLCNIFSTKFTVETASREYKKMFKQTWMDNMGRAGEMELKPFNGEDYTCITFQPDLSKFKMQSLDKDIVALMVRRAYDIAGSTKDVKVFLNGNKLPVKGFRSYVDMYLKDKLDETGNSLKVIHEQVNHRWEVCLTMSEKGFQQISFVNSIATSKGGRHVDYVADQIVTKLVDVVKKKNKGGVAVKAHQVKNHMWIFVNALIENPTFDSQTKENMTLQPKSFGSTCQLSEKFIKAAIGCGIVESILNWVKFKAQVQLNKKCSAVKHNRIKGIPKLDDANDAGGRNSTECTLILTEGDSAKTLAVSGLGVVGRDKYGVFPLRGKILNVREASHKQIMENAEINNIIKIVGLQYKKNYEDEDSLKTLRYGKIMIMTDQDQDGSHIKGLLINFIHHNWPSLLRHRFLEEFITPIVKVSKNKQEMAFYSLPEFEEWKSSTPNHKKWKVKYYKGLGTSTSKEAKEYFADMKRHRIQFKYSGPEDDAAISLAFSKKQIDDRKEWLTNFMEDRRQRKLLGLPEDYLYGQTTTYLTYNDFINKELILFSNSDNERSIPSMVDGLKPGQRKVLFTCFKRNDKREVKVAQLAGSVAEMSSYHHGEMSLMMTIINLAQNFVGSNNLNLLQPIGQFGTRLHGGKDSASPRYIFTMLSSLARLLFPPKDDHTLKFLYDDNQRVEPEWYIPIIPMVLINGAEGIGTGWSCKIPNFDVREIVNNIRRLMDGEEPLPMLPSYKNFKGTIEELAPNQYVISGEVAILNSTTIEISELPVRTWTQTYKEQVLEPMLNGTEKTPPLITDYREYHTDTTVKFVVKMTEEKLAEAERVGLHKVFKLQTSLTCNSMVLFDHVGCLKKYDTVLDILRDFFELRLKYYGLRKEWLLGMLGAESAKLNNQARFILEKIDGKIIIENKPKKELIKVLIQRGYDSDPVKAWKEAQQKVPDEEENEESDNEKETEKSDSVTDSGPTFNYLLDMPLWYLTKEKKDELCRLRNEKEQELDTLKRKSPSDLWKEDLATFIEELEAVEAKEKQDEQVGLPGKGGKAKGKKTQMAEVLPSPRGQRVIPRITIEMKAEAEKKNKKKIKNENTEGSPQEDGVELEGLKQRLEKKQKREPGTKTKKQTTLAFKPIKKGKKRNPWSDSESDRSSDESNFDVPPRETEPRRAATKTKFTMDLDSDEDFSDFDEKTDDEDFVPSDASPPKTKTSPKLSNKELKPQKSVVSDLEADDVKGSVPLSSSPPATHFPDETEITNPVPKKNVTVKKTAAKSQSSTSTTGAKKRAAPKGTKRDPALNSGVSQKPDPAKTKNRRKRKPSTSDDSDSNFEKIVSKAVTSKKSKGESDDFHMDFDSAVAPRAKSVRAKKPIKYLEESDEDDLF
# T2 sequence (Q13547 whole entry): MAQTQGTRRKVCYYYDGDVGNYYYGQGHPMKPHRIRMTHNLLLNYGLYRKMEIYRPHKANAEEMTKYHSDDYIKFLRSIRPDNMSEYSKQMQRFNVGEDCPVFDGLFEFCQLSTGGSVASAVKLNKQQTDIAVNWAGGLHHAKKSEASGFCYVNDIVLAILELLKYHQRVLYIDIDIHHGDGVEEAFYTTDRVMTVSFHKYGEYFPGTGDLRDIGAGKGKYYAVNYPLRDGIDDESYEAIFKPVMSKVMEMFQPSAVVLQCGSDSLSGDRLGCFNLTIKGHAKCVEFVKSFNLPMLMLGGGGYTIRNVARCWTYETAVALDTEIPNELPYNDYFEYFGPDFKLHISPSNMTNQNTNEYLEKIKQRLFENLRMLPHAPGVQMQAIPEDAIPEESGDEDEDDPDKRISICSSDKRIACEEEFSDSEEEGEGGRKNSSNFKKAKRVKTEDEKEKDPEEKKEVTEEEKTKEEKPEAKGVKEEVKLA
# Chain of Histone deacetylase 3 (O15379 whole entry): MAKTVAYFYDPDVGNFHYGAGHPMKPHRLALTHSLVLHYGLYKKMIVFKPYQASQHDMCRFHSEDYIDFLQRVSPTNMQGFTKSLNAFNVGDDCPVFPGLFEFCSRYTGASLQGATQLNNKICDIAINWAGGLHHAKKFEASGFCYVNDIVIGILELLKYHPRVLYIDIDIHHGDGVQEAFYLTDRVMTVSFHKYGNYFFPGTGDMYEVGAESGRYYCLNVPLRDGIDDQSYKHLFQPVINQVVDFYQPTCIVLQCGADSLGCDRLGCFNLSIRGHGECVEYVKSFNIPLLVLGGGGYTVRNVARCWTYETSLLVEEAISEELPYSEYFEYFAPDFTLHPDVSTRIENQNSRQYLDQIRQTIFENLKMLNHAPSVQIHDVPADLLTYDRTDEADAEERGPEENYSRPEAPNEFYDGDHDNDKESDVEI
structure (smiles),measurement,setting,value
CN1c2ccc(F)cc2C(=O)N2CCc3c([nH]c4ccc(O)cc34)C21 (stereo unspecified),fractional inhibitory concentration index (FICI),[1],0.868
same,fractional inhibitory concentration index (FICI),[2],0.86
same,IC50,[3],230 nM
same,CI,[4],0.561
same,IC50,[5],190 nM
same,IC50,[6],760 nM
same,CI,[7],0.954
same,fractional inhibitory concentration index (FICI),[8],0.727
same,fractional inhibitory concentration index (FICI),[9],0.836
same,CI,[10],0.784
same,IC50,[11],430 nM
same,CI,[12],0.954
same,CI,[13],1.03
same,IC50,[14],530 nM
same,T/C,[15],94.9%
same,CI,[16],0.453
same,CI,[17],0.798
same,IC50,[18],130 nM
same,CI,[19],0.956
same,inhibition in vivo at 10 mg/kg,[20],7.4%
same,fractional inhibitory concentration index (FICI),[21],0.853
same,fractional inhibitory concentration index (FICI),[22],0.802
same,fractional inhibitory concentration index (FICI),[23],0.852
same,fractional inhibitory concentration index (FICI),[24],0.862
CN1c2ccc(F)cc2C(=O)N2CCc3c([nH]c4ccc(OCc5ccc(/C=C/C(=O)Nc6ccccc6N)cc5)cc34)C21 (stereo unspecified),IC50,[3],120 nM
same,inhibition,[25],Active
same,IC50,[5],> 2000 nM
same,inhibition,[26],Active
same,IC50,[27],320 nM
same,IC50,[6],> 2000 nM
same,IC50,[28],11000 nM
same,inhibition,[29],Active
same,IC50,[30],15000 nM
same,IC50,[31],42000 nM
same,inhibition,[32],Active
same,inhibition,[33],Active
same,IC50,[11],290 nM
same,IC50,[14],930 nM
same,IC50,[18],240 nM
same,IC50,[34],690 nM
same,inhibition,[35],Active
